Measured values reported in patent US7238689B2, “Isoxazoline derivative and herbicide comprising the same as active ingredient” (Ihara Chemical Industry Co., Ltd., priority 2001, dated 2007).

Experiments:
Format in all cases: in vivo
Set-up in all cases: scale not given here
[1] = tested on: Setaria viridis (L.) Beauv.; test: Herbicidal effect by upland field soil treatment; conditions: active ingredient 1000 g/ha, examined at 21st day from treatment
Description: (§1) An upland field soil was filled in a plastic pot of 80 cm^2. Seeds of Echinochloa crus-galli (L.) Beauv. var. crusgalli and Setaria viridis (L.) Beauv. were sowed, followed by covering with the same soil. […] Then, breeding was made in a greenhouse, and the herbicidal effect of each wettable powder was examined at the 21st day from the treatment in accordance with the standard shown in Table 21.

[2] = tested on: Echinochloa crus-galli (L.) Beauv. var. crusgalli; test: Herbicidal effect by upland field soil treatment; conditions: active ingredient 1000 g/ha, examined at 21st day from treatment
Description: as §1

[3] = tested on: Monochoria vaginalis (Murm. f.) Presl var. plantaginea (Roxb.) Solms-Laub.; test: Herbicidal effect by paddy field soil treatment; conditions: wettable powder, active ingredient 1000 g/ha, examined at the 21st day from the treatment
Summary of the method: (§2)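 Seeds sown in puddled paddy soil under 3 cm of water; the next day wettable powders diluted in water were dropped onto the water surface at 1,000 g active ingredient/ha. Plants grown in a greenhouse, with herbicidal effect scored on day 21 against a rating standard.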

[4] = tested on: Echinochloa oryzicola Vasing; test: Herbicidal effect by paddy field soil treatment; conditions: wettable powder, active ingredient 1000 g/ha, examined at the 21st day from the treatment
Summary of the method: as §2

[5] = tested on: Setaria viridis (L.) Beauv.; test: Herbicidal effect by upland foliage treatment; conditions: active ingredient 1000 g/ha, examined at 14th day from treatment
Experimental: (§3) A sand was filled in a plastic pot of 80 cm^2. Seeds of Echinochloa crus-galli (L.) Beauv. var. crus-galli and Setaria viridis (L.) Beauv. were sowed. Breeding was made in a greenhouse for 2 weeks. Wettable powders produced in accordance with the Formulation 1 were diluted with water and sprayed on the whole foliage of plants from above the plants using a small sprayer in an amount of 1,000 liters per 1 hectare so that the amount of each active ingredient became 1,000 g per 1 hectare. Then, breeding was made in the greenhouse, and the herbicidal effect of each wettable powder was examined at the 14th day from the treatment in accordance with the standard shown in Table 21.

[6] = tested on: Echinochloa crus-galli (L.) Beauv. var. crus-galli; test: Herbicidal effect by upland foliage treatment; conditions: active ingredient 1000 g/ha, examined at 14th day from treatment
Experimental: as §3

Row | Molecule | herbicidal effect (index per standard of Table 21), Setaria viridis (L.) Beauv. [1] | herbicidal effect (index per standard of Table 21), Echinochloa curs-galli (L.) Beauv. Var. crus-galli [2] | Herbicidal effect index, Monochoria vaginalis (Burm. F.) Presl var. plantaginea (Roxb.) Solms-Laub. [3] | Herbicidal effect index, Echinochloa oryzicola Vasing [4] | herbicidal effect (index per standard of Table 21), Setaria viridis (L.) Beauv. [5] | herbicidal effect (index per standard of Table 21), Echinochloa curs-galli (L.) Beauv. Var. crus-galli [6]
1 | 5,5-dimethyl-[(4-methoxy-6-trifluoromethylpyrimidin-5-yl)-methylsulfonyl]-2-isoxazoline [8-0001] | 5 | 5 | 5 | 5 | 4 | 5
2 | Cc1ccsc1CS(=O)(=O)C1=NOC(C)(C)C1 [1-0001] | 5 | 5 | 5 | 5 | 4 | 5
3 | CC1(C)CC(S(=O)(=O)Cc2sccc2Cl)=NO1 [1-0004] | 5 | 5 | 5 | 5 | 4 | 5
4 | Cc1nn(C)c(C)c1CS(=O)(=O)C1=NOC(C)(C)C1 [3-0036] | 5 | 5 | – | – | 4 | 4
5 | CC(C)n1nc(Cl)c(CS(=O)(=O)C2=NOC(C)(C)C2)c1C(F)(F)F [3-0076] | – | – | – | – | 4 | 5
6 | CCCn1nc(C(F)(F)F)c(CS(=O)(=O)C2=NOC(C)(C)C2)c1Cl [3-0077] | – | – | – | – | 4 | 5
7 | CC1(C)CC(S(=O)(=O)Cc2c(C(F)(F)F)nn(CC3CC3)c2Cl)=NO1 [3-0092] | – | – | – | – | 4 | 4
8 | C=CCn1nc(C(F)(F)F)c(CS(=O)(=O)C2=NOC(C)(C)C2)c1Cl [3-0104] | – | – | – | – | 4 | 5
9 | C=CCn1nc(Cl)c(CS(=O)(=O)C2=NOC(C)(C)C2)c1C(F)(F)F [3-0105] | – | – | – | – | 4 | 5
10 | C#CCn1nc(C(F)(F)F)c(CS(=O)(=O)C2=NOC(C)(C)C2)c1Cl [3-0106] | – | – | – | – | 4 | 5
11 | C#CCn1nc(Cl)c(CS(=O)(=O)C2=NOC(C)(C)C2)c1C(F)(F)F [3-0107] | – | – | – | – | 5 | 5
12 | Cc1c(CS(=O)(=O)C2=NOC(C)(C)C2)oc2ccccc12 [10-0017] | 5 | 5 | 5 | 5 | – | –
13 | Cn1c(CS(=O)(=O)C2=NOC(C)(C)C2)c(Cl)c2ccccc21 [10-0018] | 5 | 5 | 5 | 5 | – | –
